Source: the NIST ThermoML archive (doi:10.1016/j.jct.2016.07.008)
± gives the expanded uncertainty stated by the source.

Details: Liquid

SMILES: CCCCO [butan-1-ol]
- viscosity (293.15 K, 100 kPa, Concentric cylinders viscometry): 2.959 ± 0.033 mPa·s
- viscosity (293.15 K, 100 kPa, Vibrating wire viscometry): 2.969 ± 0.047 mPa·s
- viscosity (293.15 K, 1000 kPa, Vibrating wire viscometry): 3.001 ± 0.048 mPa·s
- viscosity (293.15 K, 5000 kPa, Vibrating wire viscometry): 3.108 ± 0.049 mPa·s
- viscosity (293.15 K, 10000 kPa, Vibrating wire viscometry): 3.244 ± 0.052 mPa·s
- viscosity (293.15 K, 20000 kPa, Vibrating wire viscometry): 3.479 ± 0.055 mPa·s
- viscosity (293.15 K, 30000 kPa, Vibrating wire viscometry): 3.788 ± 0.06 mPa·s
- viscosity (293.15 K, 40000 kPa, Vibrating wire viscometry): 4.078 ± 0.065 mPa·s
- viscosity (293.15 K, 50000 kPa, Vibrating wire viscometry): 4.401 ± 0.07 mPa·s
- viscosity (293.15 K, 60000 kPa, Vibrating wire viscometry): 4.74 ± 0.075 mPa·s
- viscosity (293.15 K, 70000 kPa, Vibrating wire viscometry): 5.076 ± 0.08 mPa·s
- viscosity (293.15 K, 80000 kPa, Vibrating wire viscometry): 5.438 ± 0.086 mPa·s
- viscosity (293.15 K, 100000 kPa, Vibrating wire viscometry): 6.164 ± 0.097 mPa·s
- viscosity (293.15 K, 120000 kPa, Vibrating wire viscometry): 6.979 ± 0.11 mPa·s
- viscosity (293.15 K, 140000 kPa, Vibrating wire viscometry): 7.843 ± 0.12 mPa·s
- viscosity (298.15 K, 100 kPa, Vibrating wire viscometry): 2.601 ± 0.042 mPa·s
- viscosity (298.15 K, 1000 kPa, Vibrating wire viscometry): 2.622 ± 0.042 mPa·s
- viscosity (298.15 K, 5000 kPa, Vibrating wire viscometry): 2.715 ± 0.043 mPa·s
- viscosity (298.15 K, 10000 kPa, Vibrating wire viscometry): 2.834 ± 0.045 mPa·s
- viscosity (298.15 K, 20000 kPa, Vibrating wire viscometry): 3.079 ± 0.049 mPa·s
- viscosity (298.15 K, 30000 kPa, Vibrating wire viscometry): 3.333 ± 0.053 mPa·s
- viscosity (298.15 K, 40000 kPa, Vibrating wire viscometry): 3.599 ± 0.057 mPa·s
- viscosity (298.15 K, 50000 kPa, Vibrating wire viscometry): 3.874 ± 0.061 mPa·s
- viscosity (298.15 K, 60000 kPa, Vibrating wire viscometry): 4.16 ± 0.066 mPa·s
- viscosity (298.15 K, 70000 kPa, Vibrating wire viscometry): 4.455 ± 0.071 mPa·s
- viscosity (298.15 K, 80000 kPa, Vibrating wire viscometry): 4.761 ± 0.075 mPa·s
- viscosity (298.15 K, 100000 kPa, Vibrating wire viscometry): 5.404 ± 0.085 mPa·s
- viscosity (298.15 K, 120000 kPa, Vibrating wire viscometry): 6.087 ± 0.096 mPa·s
- viscosity (298.15 K, 140000 kPa, Vibrating wire viscometry): 6.811 ± 0.11 mPa·s
- viscosity (313.15 K, 100 kPa, Concentric cylinders viscometry): 1.794 ± 0.02 mPa·s
- viscosity (313.15 K, 100 kPa, Vibrating wire viscometry): 1.797 ± 0.029 mPa·s
- viscosity (313.15 K, 1000 kPa, Vibrating wire viscometry): 1.813 ± 0.029 mPa·s
- viscosity (313.15 K, 5000 kPa, Vibrating wire viscometry): 1.89 ± 0.03 mPa·s
- viscosity (313.15 K, 10000 kPa, Vibrating wire viscometry): 1.967 ± 0.032 mPa·s
- viscosity (313.15 K, 20000 kPa, Vibrating wire viscometry): 2.14 ± 0.034 mPa·s
- viscosity (313.15 K, 30000 kPa, Vibrating wire viscometry): 2.319 ± 0.037 mPa·s
- viscosity (313.15 K, 40000 kPa, Vibrating wire viscometry): 2.48 ± 0.04 mPa·s
- viscosity (313.15 K, 50000 kPa, Vibrating wire viscometry): 2.629 ± 0.042 mPa·s
- viscosity (313.15 K, 60000 kPa, Vibrating wire viscometry): 2.852 ± 0.045 mPa·s
- viscosity (313.15 K, 70000 kPa, Vibrating wire viscometry): 3.089 ± 0.049 mPa·s
- viscosity (313.15 K, 80000 kPa, Vibrating wire viscometry): 3.247 ± 0.052 mPa·s
- viscosity (313.15 K, 100000 kPa, Vibrating wire viscometry): 3.686 ± 0.058 mPa·s
- viscosity (313.15 K, 120000 kPa, Vibrating wire viscometry): 4.192 ± 0.066 mPa·s
- viscosity (313.15 K, 140000 kPa, Vibrating wire viscometry): 4.638 ± 0.073 mPa·s
- viscosity (323.15 K, 100 kPa, Vibrating wire viscometry): 1.429 ± 0.023 mPa·s
- viscosity (323.15 K, 1000 kPa, Vibrating wire viscometry): 1.44 ± 0.024 mPa·s
- viscosity (323.15 K, 5000 kPa, Vibrating wire viscometry): 1.491 ± 0.024 mPa·s
- viscosity (323.15 K, 10000 kPa, Vibrating wire viscometry): 1.556 ± 0.025 mPa·s
- viscosity (323.15 K, 20000 kPa, Vibrating wire viscometry): 1.69 ± 0.027 mPa·s
- viscosity (323.15 K, 30000 kPa, Vibrating wire viscometry): 1.829 ± 0.03 mPa·s
- viscosity (323.15 K, 40000 kPa, Vibrating wire viscometry): 1.975 ± 0.032 mPa·s
- viscosity (323.15 K, 50000 kPa, Vibrating wire viscometry): 2.125 ± 0.034 mPa·s
- viscosity (323.15 K, 60000 kPa, Vibrating wire viscometry): 2.281 ± 0.037 mPa·s
- viscosity (323.15 K, 70000 kPa, Vibrating wire viscometry): 2.443 ± 0.039 mPa·s
- viscosity (323.15 K, 80000 kPa, Vibrating wire viscometry): 2.61 ± 0.042 mPa·s
- viscosity (323.15 K, 100000 kPa, Vibrating wire viscometry): 2.962 ± 0.047 mPa·s
- viscosity (323.15 K, 120000 kPa, Vibrating wire viscometry): 3.335 ± 0.053 mPa·s
- viscosity (323.15 K, 140000 kPa, Vibrating wire viscometry): 3.682 ± 0.058 mPa·s
- viscosity (333.15 K, 100 kPa, Concentric cylinders viscometry): 1.154 ± 0.014 mPa·s
- viscosity (333.15 K, 100 kPa, Vibrating wire viscometry): 1.156 ± 0.019 mPa·s
- viscosity (333.15 K, 1000 kPa, Vibrating wire viscometry): 1.172 ± 0.019 mPa·s
- viscosity (333.15 K, 5000 kPa, Vibrating wire viscometry): 1.227 ± 0.02 mPa·s
- viscosity (333.15 K, 10000 kPa, Vibrating wire viscometry): 1.29 ± 0.021 mPa·s
- viscosity (333.15 K, 20000 kPa, Vibrating wire viscometry): 1.389 ± 0.023 mPa·s
- viscosity (333.15 K, 30000 kPa, Vibrating wire viscometry): 1.504 ± 0.025 mPa·s
- viscosity (333.15 K, 40000 kPa, Vibrating wire viscometry): 1.624 ± 0.026 mPa·s
- viscosity (333.15 K, 50000 kPa, Vibrating wire viscometry): 1.741 ± 0.028 mPa·s
- viscosity (333.15 K, 60000 kPa, Vibrating wire viscometry): 1.867 ± 0.03 mPa·s
- viscosity (333.15 K, 70000 kPa, Vibrating wire viscometry): 2.014 ± 0.032 mPa·s
- viscosity (333.15 K, 80000 kPa, Vibrating wire viscometry): 2.137 ± 0.034 mPa·s
- viscosity (333.15 K, 100000 kPa, Vibrating wire viscometry): 2.384 ± 0.038 mPa·s
- viscosity (333.15 K, 120000 kPa, Vibrating wire viscometry): 2.633 ± 0.042 mPa·s
- viscosity (333.15 K, 140000 kPa, Vibrating wire viscometry): 2.883 ± 0.046 mPa·s
- viscosity (348.15 K, 100 kPa, Vibrating wire viscometry): 0.8579 ± 0.015 mPa·s
- viscosity (348.15 K, 1000 kPa, Vibrating wire viscometry): 0.8647 ± 0.015 mPa·s
- viscosity (348.15 K, 5000 kPa, Vibrating wire viscometry): 0.8956 ± 0.015 mPa·s
- viscosity (348.15 K, 10000 kPa, Vibrating wire viscometry): 0.9349 ± 0.016 mPa·s
- viscosity (348.15 K, 20000 kPa, Vibrating wire viscometry): 1.016 ± 0.017 mPa·s
- viscosity (348.15 K, 30000 kPa, Vibrating wire viscometry): 1.101 ± 0.018 mPa·s
- viscosity (348.15 K, 40000 kPa, Vibrating wire viscometry): 1.189 ± 0.02 mPa·s
- viscosity (348.15 K, 50000 kPa, Vibrating wire viscometry): 1.28 ± 0.021 mPa·s
- viscosity (348.15 K, 60000 kPa, Vibrating wire viscometry): 1.375 ± 0.023 mPa·s
- viscosity (348.15 K, 70000 kPa, Vibrating wire viscometry): 1.473 ± 0.024 mPa·s
- viscosity (348.15 K, 80000 kPa, Vibrating wire viscometry): 1.575 ± 0.026 mPa·s
- viscosity (348.15 K, 100000 kPa, Vibrating wire viscometry): 1.788 ± 0.029 mPa·s
- viscosity (348.15 K, 120000 kPa, Vibrating wire viscometry): 2.015 ± 0.032 mPa·s
- viscosity (348.15 K, 140000 kPa, Vibrating wire viscometry): 2.255 ± 0.036 mPa·s
- viscosity (353.15 K, 100 kPa, Concentric cylinders viscometry): 0.7837 ± 0.0099 mPa·s
- viscosity (353.15 K, 100 kPa, Vibrating wire viscometry): 0.7903 ± 0.014 mPa·s
- viscosity (353.15 K, 1000 kPa, Vibrating wire viscometry): 0.7943 ± 0.014 mPa·s
- viscosity (353.15 K, 5000 kPa, Vibrating wire viscometry): 0.8284 ± 0.014 mPa·s
- viscosity (353.15 K, 10000 kPa, Vibrating wire viscometry): 0.8637 ± 0.015 mPa·s
- viscosity (353.15 K, 20000 kPa, Vibrating wire viscometry): 0.9473 ± 0.016 mPa·s
- viscosity (353.15 K, 30000 kPa, Vibrating wire viscometry): 1.04 ± 0.017 mPa·s
- viscosity (353.15 K, 40000 kPa, Vibrating wire viscometry): 1.102 ± 0.018 mPa·s
- viscosity (353.15 K, 50000 kPa, Vibrating wire viscometry): 1.21 ± 0.02 mPa·s
- viscosity (353.15 K, 60000 kPa, Vibrating wire viscometry): 1.295 ± 0.021 mPa·s
- viscosity (353.15 K, 70000 kPa, Vibrating wire viscometry): 1.384 ± 0.023 mPa·s
- viscosity (353.15 K, 80000 kPa, Vibrating wire viscometry): 1.473 ± 0.024 mPa·s
- viscosity (353.15 K, 100000 kPa, Vibrating wire viscometry): 1.676 ± 0.027 mPa·s
- viscosity (353.15 K, 120000 kPa, Vibrating wire viscometry): 1.857 ± 0.03 mPa·s
- viscosity (353.15 K, 140000 kPa, Vibrating wire viscometry): 2.037 ± 0.033 mPa·s
